Measurements published in US10738041B2, “Ferroportin inhibitors” (Vifor (International) AG, priority 2015, dated 2020).
Marks after values point to notes of the source that are not given here.

How the values were obtained:
[1] = system: b2m−/− mice; assay: Correction of hyperferremia in beta2-microglobulin deficient mice; format: in vivo, mouse
Excerpt: Mutations in genes involved in sensing the systemic iron stores, such as hepcidin (Hamp1), hemochromatosis protein (HFE), hemojuvelin (HJV) and transferrin receptor 2 (TFR2) cause iron overload in mice and men. HFE, HJV and TFR2 molecules on hepatocytes are necessary for signaling of appropriate hepcidin production and their deficiency results in pathophysiologically low hepcidin levels and excessive iron absorption. HFE mutations is the most frequent cause of hereditary hemochromatosis (HH) in Caucasian adults. HFE is a MHC class I-like membrane molecule that associates with beta 2-microglobulin and participates in hepcidin transcriptional regulation through the bone morphogenetic protein receptor (BMPR) pathway. HFE−/− mice have decreased hepcidin levels, develop hyperferremia and high hepatic iron levels, which makes them a suitable animal model for studying iron overload in humans (Zhou, 1998). Mice deficient in beta 2-microglobulin (b2m−/−) develop hyperferremia and hemochromatosis similarly to HFE−/− animals, as beta 2-microglobulin is necessary for the cell-surface expression and function of HFE (Rothenberg and Voland, 1996). Due to the unavailability of HFE−/− mice, b2m−/− mice were used as a model of iron overload.
Female and male homozygous b2m−/− mice were supplied from Jackson Laboratories (B6.129P2-B2mtm1Unc/J, Stock Number: 002087) at age of 6 to 7 weeks and fed standard diet (Harlan Provimi Kliba 3436) ad libitum. Age and gender matched WT C57BL/6 mice were supplied by Charles River. To study the acute effects of ferroportin (Fpn) inhibitors in iron overload b2m−/− mice were treated with compounds or the corresponding amount of vehicle at a volume of 10 ml/kg body weight. […] WT controls received only vehicle. Three hours later, mice were pre-terminally anesthetized in isoflurane chambers and blood was collected by retro-orbital bleeding. Mice were sacrificed by cervical dislocation and spleens, livers and duodena were harvested and used for biomarker analysis. All experiments have been performed in compliance with license approved by the responsible veterinarian authorities. Serum was isolated by centrifugation of blood into gel-containing microtainers (BD Biosciences) and serum iron was determined by the MULTIGENT Iron assay (Abbott Diagnostics, Cat. 6K95). Four to nine mice per group were used and one-way ANOVA with Bonferroni's multiple comparison test was applied to analyze the statistical differences between the experimental groups.

[2] = system: b2m−/− mice; assay: Prevention of iron overload in beta2-microglobulin deficient mice; format: in vivo, mouse; conditions: 14 day treatment; for 58Fe Liver Iron Reduction (%): ICP-MS; for Total Liver Iron Reduction (%) / Total Spleen Iron Increase (%): ICP-OES
Method: The efficacy of the Fpn inhibitors to prevent liver iron accumulation in b2m−/− mice was investigated. Three weeks old b2−/− mice fed LID were dosed with either Fpn inhibitor or vehicle (methylcellulose; 10 ml/kg). Mice had access to drinking water supplemented with 1 mM^58Fe(II)-sulfate and 10 mM ascorbic acid. Dosing of Fpn inhibitor or vehicle followed by exposure to iron-containing water was repeated for 14 days. Mice were euthanized and the liver and spleen iron contents were analyzed by ICP-OES (all iron isotopes) and liver tissue was also analyzed for ^58Fe concentration (ICP-MS).

Row | SMILES | 58Fe Liver Iron Reduction (%) ([2]; female, 20 mg/kg p.o. b.i.d.) | Total Liver Iron Reduction (%) ([2]; female, 20 mg/kg p.o. b.i.d.) | Total Spleen Iron Increase (%) ([2]; female, 20 mg/kg p.o. b.i.d.) | 58Fe Liver Iron Reduction (%) ([2]; female, 60 mg/kg p.o. b.i.d.) | Total Liver Iron Reduction (%) ([2]; female, 60 mg/kg p.o. b.i.d.) | Total Spleen Iron Increase (%) ([2]; female, 60 mg/kg p.o. b.i.d.) | 58Fe Liver Iron Reduction (%) ([2]; male, 20 mg/kg p.o. b.i.d.) | Total Spleen Iron Increase (%) ([2]; male, 20 mg/kg p.o. b.i.d.) | 58Fe Liver Iron Reduction (%) ([2]; male, 60 mg/kg p.o. b.i.d.) | Total Liver Iron Reduction (%) ([2]; male, 60 mg/kg p.o. b.i.d.) | Total Spleen Iron Increase (%) ([2]; male, 60 mg/kg p.o. b.i.d.) | also measured
1 | O=C(NCc1ncccc1F)c1coc(C2CN(CCc3nc4ccccc4[nH]3)C2)n1 [Example 208] | 71* % | 15 | 56** % | 87** % | 8 | 150*** % | 58% | 21 | 94** % | 84** % | 43 | Serum Iron Reduction (%) ([1]; female, Dose 20 mg/kg oral, blood collected 3 hours (##) after administration): 9%; Serum Iron Reduction (%) ([1]; female, Dose 60 mg/kg oral, blood collected 3 hours (##) after administration): 49*** %; Serum Iron Reduction (%) ([1]; male, Dose 20 mg/kg oral, blood collected 3 hours (##) after administration): 44%; Serum Iron Reduction (%) ([1]; male, Dose 60 mg/kg oral, blood collected 3 hours (##) after administration): 67** %
2 | O=C(NCc1ncccc1F)c1coc(CCNCCc2nc3ccccc3[nH]2)n1 [Example 127] | 34% | −38 | 71* % | 63*** % | 2 | 51% | 71*** % | −7 | 73*** % | 65*** % | −16 | Serum Iron Reduction (%) ([1]; female, Dose 20 mg/kg oral, blood collected 1 or 3 hours after administration (time not given)): 47*** %; Serum Iron Reduction (%) ([1]; female, Dose 60 mg/kg oral, blood collected 1 or 3 hours after administration (time not given)): 74*** %; Serum Iron Reduction (%) ([1]; male, Dose 20 mg/kg oral, blood collected 1 or 3 hours after administration (time not given)): 21%; Serum Iron Reduction (%) ([1]; male, Dose 60 mg/kg oral, blood collected 1 or 3 hours after administration (time not given)): 83** %; Total Liver Iron Reduction (%) ([2]; male, 20 mg/kg p.o. b.i.d.): 50** %
3 | O=C(NCc1ncccc1F)c1csc(CCNCCc2nc3ccccc3[nH]2)n1 [Example 94] | – | – | – | – | 57 | 65% | – | – | – | 79% | – | correction of elevated serum iron ([1]; b2m−/− mice, 50 mg/kg p.o. for 3 h (FIG. 5)): corrected the elevated serum iron to the levels observed in WT controls
